Assay results: patent US20130158024A1, “TRICYCLIC NECROSTATIN COMPOUNDS” (priority 2005, published 2013)
Entries after “also recorded” stand apart in the source; their conditions may differ. Like-named read-outs stand apart in the source and are kept apart here.

How the values were obtained:
Jurkat T cells = assay: Necrosis (CICD) of Jurkat T cells induced by Fas ligand, cycloheximide and zVAD, ATP assay; format: cell-based, human; conditions: FasL/CHX/zVAD
In short: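 Jurkat cells given FasL (5 ng/ml), cycloheximide (1 μg/ml) and zVAD.fmk (100 μM) to drive CICD, with compounds at the indicated amounts. Viability read as ATP by CellTiter-Glo after 36 h, relative to untreated cells without FasL (100%).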

[1] = tested on: Jurkat cells expressing dimerizable FADD; conditions: dimerizer and zVAD.fmk, 48 hours
[2] = tested on: FADD-deficient Jurkat T cells treated with TNF-α; assay: Inhibition of necroptosis (CICD) in FADD-deficient Jurkat T cells treated with TNF-α, ATP-based viability; format: cell-based, human
primary cortical neurons = assay: Oxygen-glucose deprivation (OGD) induced death of primary cortical neurons, MAP2 cytoblot; format: cell-based; conditions: OGD 90 minutes, 24 hours recovery; 30 μM
Experimental: Cells were allowed to recover in the presence of the compounds (except for the CNQX/MK801) for 24 hours, and specific neuronal viability was determined using MAP2 cytoblot. Values represent the percentages of live cells normalized to the compound treated cells, which were maintained in glucose-containing, non-deoxygenated media. **—P<0.02. […] Cells were allowed to recover in the presence of the compounds for 24 hours, and specific neuronal viability was determined using MAP2 cytoblot. Values represent the percentages of live cells normalized to the compound treated cells, which were maintained in glucose-containing, non-deoxygenated media. **—P<0.04.

RAW264.7 cells = assay: LPS/zVAD.fmk-induced CICD of RAW264.7 macrophage cells, ATP assay; format: cell-based, mouse; conditions: 10 ng/ml LPS, 50 or 100 μM zVAD.fmk, 30 μM Nec-1, 24 hours
Experimental: Cell viability was determined 24 hours later using an ATP assay. Values represent the percentages of live cells normalized to the control DMSO-treated cells.

Jurkat cells = assay: Apoptosis of Jurkat cells induced by FasL without or with cycloheximide; format: cell-based, human; conditions: FasL or FasL/CHX, no zVAD
Experimental: Jurkat cells were treated with 5 ng/ml of FasL without (A) or with cyclohexamide (CHX) (B) to induce apoptosis, or 5 ng/ml FasL, 1 μg/ml of CHX and 100 μM of zVAD.fmk to induce CICD (B). […] Cell viability was determined after 24 hours of incubation with indicated reagents using CellTiter-Glo ATP assay. The values represent viability relative to the control Jurkat cells without the treatment of FasL, which was set as 100% viability.
Cells were stained with DiOC6 or annexin V and EGFP-PI as described in FIG. 26A and FIG. 26B. […] Cell viability was determined by an ATP assay. Numbers represent viability normalized to that of the compound-treated cells in the absence of TNFα. […]
We seeded cells in 96-well plates (white plates for luminescent assays; black plates for fluorescent assays; clear plates for MTT assay) at the density of 5,000-10,000 cells per well for adherent cells or 20,000-50,000 cells per well for suspension cells in 100 μl of the appropriate phenol red-free media. After incubation, we determined cell viability using one of the following methods. For the ATP assay, we used luminescence-based commercial kits (CellTiter-Glo, Promega or ATPLite-M, PerkinElmer) and analyzed luminescence using a Wallac Victor II plate reader (PerkinElmer). For Sytox assay, we incubated cells with 1 μM Sytox Green reagent for thirty minutes at 37° C., and then performed fluorescent reading. […]

methylthiohydantoin-tryptophane [Nec-1]
inhibition of CICD/necrosis of Jurkat cells, in words (Jurkat T cells): protected against CICD induced by FasL/CHX/zVAD; also recorded: efficiently inhibited by Nec-1; also recorded: inhibited all published examples of necrotic cell death induced by DR activation in the presence of caspase inhibitors | inhibition of necrotic death, in words [1]: inhibited all published examples of necrotic cell death induced by DR activation in the presence of caspase inhibitors | EC50 ([2]; 10 ng/mL human TNF-α, 24 hours, ATP-based viability, EC50 ± SD from at least two independent experiments, read-out: EC50 (μM) for inhibition of necroptosis): 0.05 µM | antinecroptotic (anti-CICD) activity, in words ([2]; FADD-deficient Jurkat cells, TNFα): allowed proliferation of TNFα-treated FADD-deficient cells at a rate indistinguishable from untreated cells; also recorded: prevented the death of TNFα-treated FADD-deficient Jurkat cells | EC50 ([2]; Jurkat FADD deficient cells treated with TNFα, read-out: EC50): 0.494 µM | EC50 ([2]; concentration required to rescue 50% of cell death, TNFα for 36 hours, ATP assay, read-out: EC50): 0.494 µM | protection from OGD-induced neuronal death, in words (primary cortical neurons): protects primary cortical neurons from oxygen-glucose deprivation induced cell death; also recorded: attenuated OGD-induced death of cortical neurons | protection from LPS/zVAD.fmk toxicity, in words (RAW264.7 cells): protects from CICD induced by LPS in macrophage cells; also recorded: efficiently inhibited LPS-mediated sensitization of RAW264.7 cells to dose-dependent toxicity of zVAD.fmk | protection from apoptosis, in words (Jurkat cells): but not apoptosis induced by FasL or FasL/CHX; also recorded: lack of cytoprotection by Nec-1 in apoptotic Jurkat cells treated with FasL-CHX for 24 hours; also recorded: but not by Nec-1; also recorded: could not be inhibited by Nec-1; also recorded: had no effect on FasL-CHX-induced accumulation of annexin V-positive and propidium iodide (PI)-negative cells
